The values that follow come from ChEMBL document CHEMBL1156374, “Pestalone, a new antibiotic produced by a marine fungus in response to bacterial challenge” (2001).

Assay type in all cases: functional
Assay [1] has as its system Enterococcus faecium. Briefly: Antibacterial activity against vancomycin-resistant Enterococcus faecium.
Assay [2] in a line: Cytotoxicity against human NCI60 cells.
Assay [3] has as its system Staphylococcus aureus. Briefly: Antibacterial activity against methicillin-resistant Staphylococcus aureus.

≈ marks a conversion by molar mass, not a printed value.

In general, MIC refers to the lowest concentration found to suppress growth. Broadly, the GI50 is the concentration that inhibits growth by half. A lower GI50 goes with more potent growth inhibition.

Turning to `COc1c(Cl)c(C)c(Cl)c(O)c1C(=O)c1c(C=O)c(O)cc(O)c1CC=C(C)C` [PESTALONE], the results for the MIC in assay [1] and in assay [3] were 0.078 µg/mL (≈ 0.178 µM) and 0.037 µg/mL (≈ 0.0842 µM), respectively. Also, the GI50 in assay [2] is 6 µM.
